Data from ChEMBL document CHEMBL5212743, “Selectivity Literature for EUbOPEN Chemogenomics Library wave 3” (2023).

Experiments:
[1] = target: Kappa-type opioid receptor (Homo sapiens, UniProt P41145); experiment: Selectivity interaction (CEREP panel (GPCRS, ion channels, transporters)) EUB0000193b OPRK1; settings: Inactive against protein arginine methyltransferases,, at 10 µM
[2] = target: T1, Adenosine receptor A3 (Homo sapiens) (UniProt P0DMS8); experiment: Selectivity interaction (CEREP panel (GPCRS, ion channels, transporters)) EUB0000193b ADORA3; settings: Inactive against protein arginine methyltransferases,, at 10 µM
T1 sequence (whole entry): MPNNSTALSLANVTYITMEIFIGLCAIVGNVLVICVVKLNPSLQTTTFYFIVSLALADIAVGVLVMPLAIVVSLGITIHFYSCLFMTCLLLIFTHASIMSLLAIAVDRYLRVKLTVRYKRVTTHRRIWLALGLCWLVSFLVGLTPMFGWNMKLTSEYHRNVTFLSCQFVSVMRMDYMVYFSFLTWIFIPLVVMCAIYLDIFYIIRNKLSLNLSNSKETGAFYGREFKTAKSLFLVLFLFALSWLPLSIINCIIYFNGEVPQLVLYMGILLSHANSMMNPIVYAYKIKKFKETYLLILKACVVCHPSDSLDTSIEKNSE

Adenosine receptor A1 = Adenosine receptor A1 (Homo sapiens, UniProt P30542); experiment: (§1) Selectivity interaction (CEREP panel (GPCRS, ion channels, transporters)) EUB0000193b ADORA1
[3] = target: Adenosine receptor A2a (Homo sapiens) (UniProt P29274); experiment: Selectivity interaction (CEREP panel (GPCRS, ion channels, transporters)) EUB0000193b ADORA2A; settings: Inactive against protein arginine methyltransferases,, at 10 µM
Sequence of Adenosine receptor A2a (Homo sapiens) (P29274 whole entry): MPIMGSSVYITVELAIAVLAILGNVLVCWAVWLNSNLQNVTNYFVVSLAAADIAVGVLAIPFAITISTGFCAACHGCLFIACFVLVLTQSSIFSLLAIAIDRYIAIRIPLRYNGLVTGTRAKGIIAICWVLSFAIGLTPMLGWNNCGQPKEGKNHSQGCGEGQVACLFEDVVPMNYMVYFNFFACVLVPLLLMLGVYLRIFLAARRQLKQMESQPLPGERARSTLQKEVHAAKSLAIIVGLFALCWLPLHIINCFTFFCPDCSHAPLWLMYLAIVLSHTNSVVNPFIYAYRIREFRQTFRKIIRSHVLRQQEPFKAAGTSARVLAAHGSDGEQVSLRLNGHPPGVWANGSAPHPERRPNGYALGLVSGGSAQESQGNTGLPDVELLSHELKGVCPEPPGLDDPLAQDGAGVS

[4] = target: T2, Gamma-aminobutyric acid receptor subunit alpha-1 (Homo sapiens) (UniProt P14867); experiment: (§2) Selectivity interaction (CEREP panel (GPCRS, ion channels, transporters)) EUB0000193b GABRA1; settings: Inactive against protein arginine methyltransferases,, at 10 µM
T2 sequence (whole entry): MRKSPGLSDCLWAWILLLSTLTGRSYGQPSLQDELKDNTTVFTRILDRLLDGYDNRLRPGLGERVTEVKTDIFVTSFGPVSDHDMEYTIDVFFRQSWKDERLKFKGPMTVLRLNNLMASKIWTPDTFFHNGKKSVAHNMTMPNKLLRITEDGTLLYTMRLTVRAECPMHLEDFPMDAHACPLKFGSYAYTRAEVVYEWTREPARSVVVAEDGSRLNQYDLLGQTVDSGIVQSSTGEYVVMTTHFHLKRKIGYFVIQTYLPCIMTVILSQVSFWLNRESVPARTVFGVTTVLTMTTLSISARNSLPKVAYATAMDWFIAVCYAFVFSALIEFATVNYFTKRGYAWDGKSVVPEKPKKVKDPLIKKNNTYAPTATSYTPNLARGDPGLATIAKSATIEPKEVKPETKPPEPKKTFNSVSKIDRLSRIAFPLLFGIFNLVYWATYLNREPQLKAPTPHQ

[5] = target: Substance-K receptor (Homo sapiens) (UniProt P21452); experiment: Selectivity interaction (CEREP panel (GPCRS, ion channels, transporters)) EUB0000193b TACR2; settings: Inactive against protein arginine methyltransferases,, at 10 µM
Sequence of Substance-K receptor (Homo sapiens) (P21452 whole entry): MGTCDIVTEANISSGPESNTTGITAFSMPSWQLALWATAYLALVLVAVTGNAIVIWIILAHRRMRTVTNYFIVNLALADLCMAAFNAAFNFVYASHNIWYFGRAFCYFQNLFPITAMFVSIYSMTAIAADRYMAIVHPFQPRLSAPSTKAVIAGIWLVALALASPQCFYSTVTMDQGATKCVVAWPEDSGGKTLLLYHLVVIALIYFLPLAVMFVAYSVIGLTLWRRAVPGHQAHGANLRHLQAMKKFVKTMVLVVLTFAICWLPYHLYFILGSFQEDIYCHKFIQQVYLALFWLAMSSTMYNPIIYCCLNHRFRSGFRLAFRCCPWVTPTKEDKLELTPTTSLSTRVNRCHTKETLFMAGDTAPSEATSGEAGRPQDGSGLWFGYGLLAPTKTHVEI

[6] = target: T3, Adenosine receptor A1 (Homo sapiens) (UniProt P30542); experiment: as §1; settings: Inactive against protein arginine methyltransferases,, at 10 µM
T3 sequence (whole entry): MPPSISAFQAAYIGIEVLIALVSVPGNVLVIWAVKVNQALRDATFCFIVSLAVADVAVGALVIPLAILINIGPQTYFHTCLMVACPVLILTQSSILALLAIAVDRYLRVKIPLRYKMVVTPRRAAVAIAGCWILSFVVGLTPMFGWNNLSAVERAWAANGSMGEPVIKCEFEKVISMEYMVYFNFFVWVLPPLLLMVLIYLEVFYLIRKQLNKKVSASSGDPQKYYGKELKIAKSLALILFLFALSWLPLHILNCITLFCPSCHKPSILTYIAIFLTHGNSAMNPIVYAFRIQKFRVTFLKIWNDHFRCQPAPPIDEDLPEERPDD

[7] = target: Histone-lysine N-methyltransferase NSD2 (Homo sapiens) (UniProt O96028); experiment: Selectivity interaction (Epigenetic methyltransferases panel) EUB0000193b NSD2; settings: Inactive against protein arginine methyltransferases,, at 10 µM
Sequence of Histone-lysine N-methyltransferase NSD2 (Homo sapiens) (O96028 whole entry): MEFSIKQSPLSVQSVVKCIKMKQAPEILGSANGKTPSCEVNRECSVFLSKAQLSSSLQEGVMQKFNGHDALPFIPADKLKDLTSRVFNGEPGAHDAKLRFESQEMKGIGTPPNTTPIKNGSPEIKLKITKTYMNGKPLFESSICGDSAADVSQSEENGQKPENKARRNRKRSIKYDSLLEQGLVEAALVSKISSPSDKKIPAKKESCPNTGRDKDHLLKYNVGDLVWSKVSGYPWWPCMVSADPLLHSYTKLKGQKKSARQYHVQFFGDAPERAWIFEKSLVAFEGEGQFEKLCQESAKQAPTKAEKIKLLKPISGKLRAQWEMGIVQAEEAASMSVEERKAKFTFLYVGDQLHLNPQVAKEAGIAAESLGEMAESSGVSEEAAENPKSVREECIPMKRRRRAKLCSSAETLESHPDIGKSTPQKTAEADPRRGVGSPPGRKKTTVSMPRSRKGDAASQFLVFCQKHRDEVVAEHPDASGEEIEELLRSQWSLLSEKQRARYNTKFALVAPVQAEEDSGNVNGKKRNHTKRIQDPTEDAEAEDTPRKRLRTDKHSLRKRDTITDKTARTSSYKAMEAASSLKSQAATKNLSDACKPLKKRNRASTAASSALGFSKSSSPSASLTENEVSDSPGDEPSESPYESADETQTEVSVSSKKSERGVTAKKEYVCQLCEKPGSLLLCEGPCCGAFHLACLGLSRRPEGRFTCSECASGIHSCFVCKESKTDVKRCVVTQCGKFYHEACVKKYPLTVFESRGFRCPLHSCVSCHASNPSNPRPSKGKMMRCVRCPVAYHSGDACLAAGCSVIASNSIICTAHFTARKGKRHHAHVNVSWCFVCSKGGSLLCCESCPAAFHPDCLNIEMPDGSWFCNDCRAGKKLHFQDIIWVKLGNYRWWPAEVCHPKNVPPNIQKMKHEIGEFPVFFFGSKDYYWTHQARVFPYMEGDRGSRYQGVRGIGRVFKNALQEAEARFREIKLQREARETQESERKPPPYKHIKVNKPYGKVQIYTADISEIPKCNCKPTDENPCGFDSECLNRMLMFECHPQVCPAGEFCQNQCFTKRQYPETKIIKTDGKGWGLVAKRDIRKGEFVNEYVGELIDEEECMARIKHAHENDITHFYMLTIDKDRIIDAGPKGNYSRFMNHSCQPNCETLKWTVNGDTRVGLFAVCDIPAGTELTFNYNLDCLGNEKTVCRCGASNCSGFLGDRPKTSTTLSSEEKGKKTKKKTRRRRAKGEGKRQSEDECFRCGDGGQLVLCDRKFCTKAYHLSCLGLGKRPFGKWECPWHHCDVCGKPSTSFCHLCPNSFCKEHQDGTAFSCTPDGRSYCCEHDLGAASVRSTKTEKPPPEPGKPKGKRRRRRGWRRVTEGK

[8] = target: T4, Gamma-aminobutyric acid receptor subunit alpha-1 (Homo sapiens, UniProt P14867); experiment: as §2
T4 sequence (P14867 whole entry): T2 sequence (whole entry)

[9] = target: Delta-type opioid receptor (Homo sapiens) (UniProt P41143); experiment: Selectivity interaction (CEREP panel (GPCRS, ion channels, transporters)) EUB0000193b OPRD1; settings: Inactive against protein arginine methyltransferases,, at 10 µM
Sequence of Delta-type opioid receptor (Homo sapiens) (P41143 whole entry): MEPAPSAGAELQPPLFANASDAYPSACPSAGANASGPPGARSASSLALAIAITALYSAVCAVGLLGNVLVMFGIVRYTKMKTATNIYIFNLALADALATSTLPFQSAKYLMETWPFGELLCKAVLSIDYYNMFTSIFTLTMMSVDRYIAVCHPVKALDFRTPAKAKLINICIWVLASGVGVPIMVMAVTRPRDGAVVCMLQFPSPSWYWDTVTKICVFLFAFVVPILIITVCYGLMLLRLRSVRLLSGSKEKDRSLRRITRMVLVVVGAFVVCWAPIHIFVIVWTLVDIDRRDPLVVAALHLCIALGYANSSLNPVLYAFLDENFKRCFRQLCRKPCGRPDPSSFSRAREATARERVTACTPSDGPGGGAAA

[10] = target: Glutamate receptor ionotropic, NMDA 1 (Homo sapiens, UniProt Q05586); experiment: Selectivity interaction (PRESTO-Tango GPCR-ome screening) EUB0000539a GRIN1
[11] = target: Serine/threonine-protein kinase WNK2 (Homo sapiens) (UniProt Q9Y3S1); experiment: Selectivity interaction (KinomeScan (DiscoverX)) EUB0000303b WNK2; settings: at 1 µM
[12] = target: Sodium-dependent dopamine transporter (Homo sapiens, UniProt Q01959); experiment: Selectivity interaction (GPCR panel (PDSP screen)) EUB0000303b SLC6A3
Sequence of Sodium-dependent dopamine transporter (Q01959 whole entry): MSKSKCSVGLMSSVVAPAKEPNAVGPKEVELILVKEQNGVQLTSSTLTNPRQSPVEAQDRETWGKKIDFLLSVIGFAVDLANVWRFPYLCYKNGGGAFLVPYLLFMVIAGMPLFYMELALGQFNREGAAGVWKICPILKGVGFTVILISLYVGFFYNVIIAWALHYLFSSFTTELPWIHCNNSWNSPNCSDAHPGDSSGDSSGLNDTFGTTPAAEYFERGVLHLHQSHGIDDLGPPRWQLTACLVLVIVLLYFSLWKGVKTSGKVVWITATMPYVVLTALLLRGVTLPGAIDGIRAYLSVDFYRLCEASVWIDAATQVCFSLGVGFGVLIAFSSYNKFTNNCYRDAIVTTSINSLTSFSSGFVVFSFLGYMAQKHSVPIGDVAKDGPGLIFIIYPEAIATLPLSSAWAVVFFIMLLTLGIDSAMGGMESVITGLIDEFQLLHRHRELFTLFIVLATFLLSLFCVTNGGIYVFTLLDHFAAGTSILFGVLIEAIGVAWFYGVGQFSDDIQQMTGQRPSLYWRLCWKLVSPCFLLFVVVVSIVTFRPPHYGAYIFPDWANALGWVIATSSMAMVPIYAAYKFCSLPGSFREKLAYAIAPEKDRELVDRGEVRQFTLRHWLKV

[13] = target: Voltage-gated inwardly rectifying potassium channel KCNH2 (Homo sapiens, UniProt Q12809); experiment: Selectivity interaction (Ricerca panel (GPCRs, ion channels, transporters, enzymes, and proteases)) EUB0000303b KCNH2; settings: at 10 µM
[14] = target: T5, Ephrin type-B receptor 6 (Homo sapiens) (UniProt O15197); experiment: Selectivity interaction (KinomeScan (DiscoverX)) EUB0000303b EPHB6; settings: at 1 µM
T5 sequence (whole entry): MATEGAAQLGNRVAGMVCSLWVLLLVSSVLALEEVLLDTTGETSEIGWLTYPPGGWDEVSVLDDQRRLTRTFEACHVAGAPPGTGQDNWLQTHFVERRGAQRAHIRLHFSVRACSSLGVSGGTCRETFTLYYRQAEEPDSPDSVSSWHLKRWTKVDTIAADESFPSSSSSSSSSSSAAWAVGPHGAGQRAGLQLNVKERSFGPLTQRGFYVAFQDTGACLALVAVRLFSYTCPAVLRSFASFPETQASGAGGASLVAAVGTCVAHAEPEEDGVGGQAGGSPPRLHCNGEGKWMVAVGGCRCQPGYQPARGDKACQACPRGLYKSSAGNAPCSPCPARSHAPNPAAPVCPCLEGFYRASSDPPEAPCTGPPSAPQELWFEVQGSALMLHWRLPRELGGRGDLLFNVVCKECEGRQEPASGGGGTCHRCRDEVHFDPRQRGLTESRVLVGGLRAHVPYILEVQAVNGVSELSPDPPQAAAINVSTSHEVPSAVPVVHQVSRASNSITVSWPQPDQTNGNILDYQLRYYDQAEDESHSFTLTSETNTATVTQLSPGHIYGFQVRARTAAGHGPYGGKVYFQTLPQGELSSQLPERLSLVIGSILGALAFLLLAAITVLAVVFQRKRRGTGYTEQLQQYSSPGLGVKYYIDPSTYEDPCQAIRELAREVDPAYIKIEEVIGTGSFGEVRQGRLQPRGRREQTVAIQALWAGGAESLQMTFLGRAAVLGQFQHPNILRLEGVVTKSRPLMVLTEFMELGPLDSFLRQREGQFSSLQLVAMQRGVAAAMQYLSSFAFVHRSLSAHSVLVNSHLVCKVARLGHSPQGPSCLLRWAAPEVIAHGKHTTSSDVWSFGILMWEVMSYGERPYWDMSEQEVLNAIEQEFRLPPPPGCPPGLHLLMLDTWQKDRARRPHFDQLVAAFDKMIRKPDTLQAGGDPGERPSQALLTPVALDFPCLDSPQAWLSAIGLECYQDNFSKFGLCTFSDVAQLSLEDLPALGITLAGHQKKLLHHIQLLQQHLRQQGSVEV

[15] = target: T6, Serine/threonine-protein kinase Sgk1 (Homo sapiens) (UniProt O00141); experiment: Selectivity interaction (KinomeScan (DiscoverX)) EUB0000303b SGK1; settings: at 1 µM
T6 sequence (whole entry): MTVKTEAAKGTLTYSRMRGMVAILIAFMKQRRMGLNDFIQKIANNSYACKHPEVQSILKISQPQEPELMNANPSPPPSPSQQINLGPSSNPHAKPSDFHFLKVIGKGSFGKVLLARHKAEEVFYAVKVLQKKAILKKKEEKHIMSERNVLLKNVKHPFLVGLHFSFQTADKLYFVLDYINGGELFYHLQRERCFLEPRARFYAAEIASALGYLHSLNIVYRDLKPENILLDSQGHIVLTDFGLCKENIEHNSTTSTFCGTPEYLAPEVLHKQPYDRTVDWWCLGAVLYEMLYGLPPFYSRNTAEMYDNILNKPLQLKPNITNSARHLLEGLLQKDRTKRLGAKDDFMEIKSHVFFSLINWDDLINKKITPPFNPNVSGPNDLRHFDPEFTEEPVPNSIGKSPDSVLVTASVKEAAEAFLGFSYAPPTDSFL

[16] = target: Ribosomal protein S6 kinase alpha-3 (Homo sapiens) (UniProt P51812); experiment: Selectivity interaction (KinomeScan (DiscoverX)) EUB0000303b RPS6KA3; settings: at 1 µM
Sequence of Ribosomal protein S6 kinase alpha-3 (Homo sapiens) (P51812 whole entry): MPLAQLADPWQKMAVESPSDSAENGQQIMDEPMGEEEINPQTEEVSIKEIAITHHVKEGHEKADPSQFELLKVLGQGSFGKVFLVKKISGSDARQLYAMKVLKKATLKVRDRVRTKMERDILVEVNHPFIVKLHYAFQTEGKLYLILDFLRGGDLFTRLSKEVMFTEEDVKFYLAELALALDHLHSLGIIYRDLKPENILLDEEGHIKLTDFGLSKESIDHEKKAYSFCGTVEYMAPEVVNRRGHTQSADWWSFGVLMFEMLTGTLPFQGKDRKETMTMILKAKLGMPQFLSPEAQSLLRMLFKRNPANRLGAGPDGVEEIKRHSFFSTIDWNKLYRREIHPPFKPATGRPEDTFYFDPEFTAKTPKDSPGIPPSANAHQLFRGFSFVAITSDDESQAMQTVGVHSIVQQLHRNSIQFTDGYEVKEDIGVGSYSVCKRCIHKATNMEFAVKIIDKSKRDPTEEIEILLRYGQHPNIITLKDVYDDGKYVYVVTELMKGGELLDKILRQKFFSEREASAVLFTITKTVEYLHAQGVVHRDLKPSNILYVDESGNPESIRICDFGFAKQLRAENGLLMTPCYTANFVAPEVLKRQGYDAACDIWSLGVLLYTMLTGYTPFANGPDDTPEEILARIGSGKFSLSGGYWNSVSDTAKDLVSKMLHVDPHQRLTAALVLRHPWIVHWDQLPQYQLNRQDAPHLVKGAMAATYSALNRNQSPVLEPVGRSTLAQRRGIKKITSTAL

[17] = target: Beta-adrenergic receptor kinase 1 (Homo sapiens) (UniProt P25098); experiment: Selectivity interaction (KinomeScan (DiscoverX)) EUB0000303b ADRBK1; settings: at 1 µM
Sequence of Beta-adrenergic receptor kinase 1 (Homo sapiens) (P25098 whole entry): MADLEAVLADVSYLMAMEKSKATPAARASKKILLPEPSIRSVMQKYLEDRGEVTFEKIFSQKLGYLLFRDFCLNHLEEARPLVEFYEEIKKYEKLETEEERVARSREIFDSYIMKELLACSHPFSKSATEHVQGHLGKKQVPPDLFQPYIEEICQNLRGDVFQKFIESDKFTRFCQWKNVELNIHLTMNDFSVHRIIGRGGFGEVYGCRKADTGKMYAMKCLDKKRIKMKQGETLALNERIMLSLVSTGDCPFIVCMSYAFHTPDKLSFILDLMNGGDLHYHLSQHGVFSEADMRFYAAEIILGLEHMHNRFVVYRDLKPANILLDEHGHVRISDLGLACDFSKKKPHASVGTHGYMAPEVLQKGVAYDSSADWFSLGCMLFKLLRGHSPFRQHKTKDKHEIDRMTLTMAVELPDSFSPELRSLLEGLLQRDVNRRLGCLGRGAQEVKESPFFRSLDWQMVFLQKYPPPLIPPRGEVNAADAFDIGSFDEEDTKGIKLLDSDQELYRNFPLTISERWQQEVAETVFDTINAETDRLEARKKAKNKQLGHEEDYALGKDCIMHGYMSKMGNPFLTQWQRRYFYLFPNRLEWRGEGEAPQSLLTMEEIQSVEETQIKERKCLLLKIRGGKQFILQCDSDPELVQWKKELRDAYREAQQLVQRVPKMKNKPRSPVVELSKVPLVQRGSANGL

[18] = target: T7, Serine/threonine-protein kinase LATS2 (Homo sapiens) (UniProt Q9NRM7); experiment: Selectivity interaction (KinomeScan (DiscoverX)) EUB0000303b LATS2; settings: at 1 µM
T7 sequence (whole entry): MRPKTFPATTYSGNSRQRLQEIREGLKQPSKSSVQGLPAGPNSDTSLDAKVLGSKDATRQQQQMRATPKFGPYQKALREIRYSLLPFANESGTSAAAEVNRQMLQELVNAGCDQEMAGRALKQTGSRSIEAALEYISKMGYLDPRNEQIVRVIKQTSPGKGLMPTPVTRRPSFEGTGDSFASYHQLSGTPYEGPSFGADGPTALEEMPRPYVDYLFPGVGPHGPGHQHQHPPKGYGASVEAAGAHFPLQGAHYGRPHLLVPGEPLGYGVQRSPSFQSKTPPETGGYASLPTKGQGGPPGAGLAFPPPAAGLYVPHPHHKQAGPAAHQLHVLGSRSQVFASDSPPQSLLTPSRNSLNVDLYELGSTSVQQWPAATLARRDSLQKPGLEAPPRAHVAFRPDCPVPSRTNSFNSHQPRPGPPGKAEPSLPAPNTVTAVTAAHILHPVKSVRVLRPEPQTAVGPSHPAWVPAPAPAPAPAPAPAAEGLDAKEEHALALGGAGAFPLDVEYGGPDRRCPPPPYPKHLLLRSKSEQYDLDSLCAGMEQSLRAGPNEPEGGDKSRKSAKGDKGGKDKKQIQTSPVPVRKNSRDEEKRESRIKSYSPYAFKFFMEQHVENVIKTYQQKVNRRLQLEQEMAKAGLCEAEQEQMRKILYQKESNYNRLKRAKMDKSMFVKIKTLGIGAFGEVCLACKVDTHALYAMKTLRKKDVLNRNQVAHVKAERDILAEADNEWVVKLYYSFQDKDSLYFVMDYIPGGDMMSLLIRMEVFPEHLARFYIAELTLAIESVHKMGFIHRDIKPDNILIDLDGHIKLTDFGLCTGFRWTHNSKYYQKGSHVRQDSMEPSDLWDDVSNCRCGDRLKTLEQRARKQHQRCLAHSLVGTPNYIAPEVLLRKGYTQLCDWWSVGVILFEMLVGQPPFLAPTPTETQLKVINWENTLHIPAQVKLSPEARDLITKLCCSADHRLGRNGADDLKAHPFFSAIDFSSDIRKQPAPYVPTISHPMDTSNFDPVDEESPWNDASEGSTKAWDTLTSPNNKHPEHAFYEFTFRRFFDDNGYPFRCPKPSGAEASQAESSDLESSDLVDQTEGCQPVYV

[19] = target: T4, Gamma-aminobutyric acid receptor subunit alpha-1; experiment: Selectivity interaction (GPCR panel (PDSP screen)) EUB0000303b GABRA1

Sequence of Kappa-type opioid receptor (P41145 whole entry): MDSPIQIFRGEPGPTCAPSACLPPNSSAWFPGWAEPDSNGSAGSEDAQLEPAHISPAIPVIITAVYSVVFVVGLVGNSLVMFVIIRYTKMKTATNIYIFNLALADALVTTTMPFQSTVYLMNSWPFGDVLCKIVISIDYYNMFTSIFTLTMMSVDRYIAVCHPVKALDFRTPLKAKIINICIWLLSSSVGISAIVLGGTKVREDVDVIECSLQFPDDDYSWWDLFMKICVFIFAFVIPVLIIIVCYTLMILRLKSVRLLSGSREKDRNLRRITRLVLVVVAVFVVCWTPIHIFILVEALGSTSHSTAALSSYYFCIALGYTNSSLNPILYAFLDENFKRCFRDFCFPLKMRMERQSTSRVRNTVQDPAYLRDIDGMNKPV

Clc1cc2c(NC3CCCC3)nnc(-c3ccncc3)c2cc1Cl
% of inhibition [1]: 62%
% of inhibition [2]: 74%
Ki (Adenosine receptor A1): 12 nM
% of inhibition [3]: 98%
% of inhibition [4]: 90%
% of inhibition [5]: 61%
% of inhibition [6]: 98%
% of activity remaining [7]: 90%
Ki [8]: 1800 nM
% of inhibition [9]: 51%

Cc1ccc2nc(CNCCCOc3ccccc3)cc(O)c2c1 [UCSF924]
Ki [10]: 1000 nM

Cc1nc(N2CC[C@H](O)C2)ncc1-c1cc(C(F)(F)F)cc2[nH]ncc12
% of control [11]: 41%
Ki [12]: 1680 nM
% of inhibition [13]: 1%
% of control [14]: 36%
% of control [15]: 49%
% of control [16]: 48%
% of control [17]: 42%
% of control [18]: 26%
Ki [19]: 4540 nM
